Experimental data published in DBAASP.
In brackets after ≈: the same amount, converted by molar mass.

Assays:
Assay in all cases: ≥ marks a high value that may be exact or a test limit, other limits are often not marked, values filed in µg/mL are converted to µM
[1] = test system: Aeromonas salmonicida NCIMB 1102
[2] = test system: Corynebacterium glutamicum ATCC 13032
[3] = test system: Escherichia coli ATCC 25922
[4] = test system: Micrococcus luteus ATCC 4698
[5] = test system: Planococcus citreus NCIMB 1493
[6] = test system: Psychrobacter immobilis NCIMB 308
[7] = test system: Staphylococcus aureus ATCC 9144
[8] = test system: Vibrio anguillarum NCIMB 2129
[9] = test system: Vibrio anguillarum NCIMB 2133
[10] = test system: Vibrio anguillarum VI-F258-3
[11] = test system: Yersinia ruckeri NCIMB 2196
[12] = test system: Yersinia ruckeri VI-3629
[13] = test system: Bacillus subtilis AB91021
[14] = test system: Bacillus thuringiensis AB92037
[15] = test system: Escherichia coli AB94012
[16] = test system: Escherichia coli D31
[17] = test system: Listeria fleischmannii DSM 24998
[18] = test system: Listeria grayi DSM 20601
[19] = test system: Listeria monocytogenes DSM 20600
[20] = test system: Micrococcus luteus AB93113
[21] = test system: Micrococcus luteus DSM 20030
[22] = test system: Pseudomonas aeruginosa AB93066
[23] = test system: Staphylococcus aureus AB94004
[24] = test system: Staphylococcus aureus DSM 2569
[25] = test system: Staphylococcus aureus P1369
[26] = test system: Staphylococcus aureus P1374
[27] = test system: Staphylococcus aureus P1381
[28] = test system: Staphylococcus aureus P1383
[29] = test system: Staphylococcus aureus P1386
[30] = test system: Staphylococcus epidermidis P1111
[31] = test system: Staphylococcus epidermidis P1389
[32] = test system: Bacillus cereus
[33] = test system: Batrachochytrium dendrobatidis
[34] = test system: Escherichia coli
[35] = test system: Leuconostoc lactis
[36] = test system: Listeria innocua
[37] = test system: Micrococcus luteus
[38] = test system: Pasteurella multocida
[39] = test system: Staphylococcus aureus
[40] = test system: Staphylococcus epidermidis
[41] = test system: Streptococcus uberis
[42] = test system: Klebsiella pneumoniae ATCC 13883
[43] = test system: Listeria monocytogenes ATCC 19115
[44] = test system: Salmonella enterica subsp. enterica serovar Typhimurium ATCC 14028
[45] = test system: Salmonella enterica subsp. enterica serovar Typhimurium ATCC 700408
[46] = test system: Staphylococcus aureus ATCC 25923
[47] = test system: Staphylococcus aureus ATCC 43300
[48] = test system: Staphylococcus aureus ATCC BAA-39

CC[C@H](C)[C@H](NC(=O)[C@H](CC(C)C)NC(=O)CNC(=O)[C@@H](NC(=O)[C@@H](NC(=O)[C@H](Cc1cnc[nH]1)NC(=O)[C@H](Cc1cnc[nH]1)NC(=O)[C@H](CC(C)C)NC(=O)[C@@H](N)Cc1ccccc1)[C@@H](C)CC)C(C)C)C(=O)N[C@@H](Cc1cnc[nH]1)C(=O)N[C@@H](Cc1cnc[nH]1)C(=O)NCC(=O)N[C@@H](CC(C)C)C(=O)N[C@@H](CO)C(=O)N[C@@H](CC(C)C)C(=O)N[C@@H](Cc1ccccc1)C(=O)NCC(=O)N[C@@H](CC(=O)O)C(=O)N[C@@H](CCCN=C(N)N)C(=O)N[C@@H](C)C(=O)N[C@@H](CC(=O)O)C(=O)O [FLHHIVGLIHHGLSLFGDRAD]
MIC [1]: 10 µM (≈ 23.5 µg/mL) | MIC [2]: 10 µM (≈ 23.5 µg/mL) | MIC [3]: > 10 µM | MIC [4]: 10 µM (≈ 23.5 µg/mL) | MIC [5]: 10 µM (≈ 23.5 µg/mL) | MIC [6]: 3.54 µM (≈ 8.33 µg/mL) | MIC [7]: 10 µM (≈ 23.5 µg/mL) | MIC [8]: 10 µM (≈ 23.5 µg/mL) | MIC [9]: 10 µM (≈ 23.5 µg/mL) | MIC [10]: 10 µM (≈ 23.5 µg/mL) | MIC [11]: 3.54 µM (≈ 8.33 µg/mL) | MIC [12]: 10 µM (≈ 23.5 µg/mL)

CC[C@H](C)[C@H](NC(=O)[C@H](C)NC(=O)[C@H](CO)NC(=O)[C@H](CCCCN)NC(=O)[C@@H](NC(=O)CNC(=O)[C@H](CCC(=O)O)NC(=O)[C@H](Cc1c[nH]c2ccccc12)NC(=O)[C@H](CC(C)C)NC(=O)[C@H](CCCCN)NC(=O)CNC(=O)[C@H](Cc1c[nH]c2ccccc12)NC(=O)[C@H](Cc1ccccc1)NC(=O)CN)C(C)C)C(N)=O [GFWGKLWEGVKSAI]
MIC [13]: 15.8 µM (≈ 25 µg/mL) | MIC [14]: 31.7 µM (≈ 50 µg/mL) | MIC [15]: 31.7 µM (≈ 50 µg/mL) | MIC [16]: 15 µM (≈ 23.7 µg/mL) | MIC [17]: 4 µM (≈ 6.31 µg/mL) | MIC [18]: 4 µM (≈ 6.31 µg/mL) | MIC [19]: 8 µM (≈ 12.6 µg/mL) | MIC [20]: 15.8 µM (≈ 25 µg/mL) | MIC [21]: 2 µM (≈ 3.15 µg/mL) | MIC [22]: ≥ 63.4 µM | MIC [23]: 3.96 µM (≈ 6.25 µg/mL) | MIC [24]: 15 µM (≈ 23.7 µg/mL) | MIC [25]: 3.96 µM (≈ 6.25 µg/mL) | MIC [26]: 3.96 µM (≈ 6.25 µg/mL) | MIC [27]: 15.8 µM (≈ 25 µg/mL) | MIC [28]: 7.92 µM (≈ 12.5 µg/mL) | MIC [29]: 7.92 µM (≈ 12.5 µg/mL) | MIC [30]: 3.96 µM (≈ 6.25 µg/mL) | MIC [31]: 7.92 µM (≈ 12.5 µg/mL)

CC[C@H](C)[C@H](NC(=O)CNC(=O)[C@H](CCC(=O)O)NC(=O)[C@@H](NC(=O)[C@@H](NC(=O)CNC(=O)[C@H](CO)NC(=O)[C@H](C)NC(=O)[C@H](CC(C)C)NC(=O)[C@H](CC(=O)O)NC(=O)CNC(=O)[C@H](C)NC(=O)[C@H](C)NC(=O)[C@H](CO)NC(=O)[C@H](CCCCN)NC(=O)[C@@H](NC(=O)[C@H](CCCCN)NC(=O)[C@H](CCC(N)=O)NC(=O)[C@H](Cc1c[nH]c2ccccc12)NC(=O)[C@H](CC(C)C)NC(=O)CN)[C@@H](C)CC)[C@@H](C)CC)C(C)C)C(=O)N[C@@H](CCCCN)C(=O)N[C@@H](CO)C(N)=O [GLWQKIKSAAGDLASGIVEGIKS]
MIC [32]: ≥ 42.9 µM | MIC [33]: ≥ 200 µM | MIC [34]: 10.7 µM (≈ 25 µg/mL) | MIC [35]: ≥ 42.9 µM | MIC [36]: ≥ 42.9 µM | MIC [37]: 5.15 µM (≈ 12 µg/mL) | MIC [38]: ≥ 42.9 µM | MIC [39]: > 42.9 µM | MIC [40]: ≥ 42.9 µM | MIC [41]: ≥ 42.9 µM

CC(C)C[C@H](NC(=O)[C@H](CCCN=C(N)N)NC(=O)CNC(=O)[C@H](CCC(N)=O)NC(=O)[C@@H]1CCCN1C(=O)[C@H](CC(C)C)NC(=O)[C@H](CCCCN)NC(=O)[C@H](Cc1ccccc1)NC(=O)[C@@H](NC(=O)[C@@H]1CCCN1C(=O)[C@H](CCC(N)=O)NC(=O)[C@H](CO)NC(=O)[C@H](Cc1ccccc1)NC(=O)[C@H](CCCN=C(N)N)NC(=O)[C@@H](N)CCC(N)=O)[C@@H](C)O)C(=O)N[C@H](C(=O)N[C@@H](CC(C)C)C(=O)N[C@@H](CO)C(=O)N[C@@H](CCCN=C(N)N)C(=O)N[C@@H](CCCCN)C(=O)N[C@@H](Cc1ccccc1)C(=O)N[C@@H](CCCN=C(N)N)C(=O)O)[C@@H](C)O [QRFSQPTFKLPQGRLTLSRKFR]
MIC [3]: 9.29 µM (≈ 25 µg/mL) | MIC [42]: 9.29 µM (≈ 25 µg/mL) | MIC [43]: 9.29 µM (≈ 25 µg/mL) | MIC [44]: 9.29 µM (≈ 25 µg/mL) | MIC [45]: 9.29 µM (≈ 25 µg/mL) | MIC [46]: 37.1 µM (≈ 100 µg/mL) | MIC [47]: 37.1 µM (≈ 100 µg/mL) | MIC [48]: ≥ 37.1 µM
